Consider two molecules from patent publication US20030207811A1, “Method of treating retinopathy of prematurity using somatostatin analogs” (priority 2002, published 2003).

“Also recorded” adds a separate entry of the source. Bridge positions count the residues as written; N and C are the ends. Square brackets hold non-standard residues; d marks the D form. Peptide text beside a SMILES is read from it.

For data set [1], the system named is oxygen induced retinopathy. Description: Oxygen induced retinopathy in neonatal mice, retinal scoring of fluorescein perfused whole mounts. In kind it is in vivo, C57BL6 mice. The settings on record: for retinal neovascularization: mouse model of oxygen induced retinopathy; for median total retinopathy score / median total retinopathy score [median(25th, 75th quartile)]: oxygen reared; for median total retinopathy score [median(25th, 75th quartile)]: octreotide 20 μg kg^−1 bid s.c. P12-P16. The procedure:
(§1) This protocol was approved by the Georgetown University Animal Care and Use committee and adhered to the Association for Research in Vision and Ophthalmology Statement for the Use of Animals in Ophthalmic and Vision Research. C57BL6 mice were obtained from Taconic Laboratories (Germantown, N.Y.). Neonatal mice were placed in an infant incubator with their nursing mother with 75% oxygen at P7 and remained in oxygen until removal to room air at P12 (Smith et al., 1994 Invest. Ophthalmol. Vis. Sci. 35, 101-11). Oxygen was delivered at 75±2%, measured with an oxygen analyser (Hudson Ventonics, Temecula, Calif., U.S.A.), and checked at least twice daily. Individual litters were either oxygen or room air reared. Within litters, differential treatment was performed including no treatment, octreotide, Woc4D, and sham injection. Animals were treated with injections for 5 days from P12 to P16. Animal killing was performed using a lethal dose of pentobarbital (120 mg/kg i.p.). Animals were perfused with fluorescein conjugated dextran as previously described (D'Amato et al., 1993, Microvasc. Res. 46, 135-42) and retinopathy was assessed by a retinal scoring system shown in Table I.
It was received and used as the acetate salt. Octreotide acetate was purchased from Polypeptide Laboratories. […] The analogs were dissolved in 33 mM acetate buffer (pH 5) with 135 mM NaCl. Sham injections were performed with that vehicle.
Retinopathy scores were evaluated by the Kruskal-Wallis test for the overall group and by the Mann-Whitney test to determine differences between groups. Animals weights and GH expression were evaluated using Student's t-test. Statistical significance was determined at the P<0.05 level.

Data set [2] deals with T1, SSTR2 (Homo sapiens, UniProt P30874). The settings on record: agonist analog; cited from earlier work.
The nature of data set [3]: Growth as measured by animal weight. The settings on record: Woc4D or octreotide treatment P12-P16. The class given is in vivo, C57BL6 mice. On the procedure:
as §1, with “Animal killing was performed using a lethal dose of pentobarbital (120 mg/kg i.p.).” left out, “I. […]” for “I.”
Retinopathy scores were evaluated by the Kruskal-Wallis test for the overall group and by the Mann-Whitney test to determine differences between groups. Animals weights and GH expression were evaluated using Student's t-test. Statistical significance was determined at the P<0.05 level. […]

The test system of data set [4] is pituitary growth hormone (GH) mRNA. Description: Pituitary growth hormone mRNA expression by RT-PCR. In kind it is in vivo, C57BL6 mice. On the procedure: RNA was extracted using TRIzol reagent (Life Technologies, Rockville, Md., U.S.A.) as described by the manufacturer and reverse transcriptase polymerase chain reaction (RT-PCR) was performed. Ten μg of RNA and 2 μM oligo(dT) 16 (total volume 22 μl) were heated at 68° C. for 2 min and cooled on ice. […] The mixture was incubated at 42° C. for 1 hour, then 99° C. for 5 min. The resultant cDNA was diluted with 100 μl of water and stored at -20° C. until PCR was performed. […] The mixture was incubated for 4 min at 94° C., followed by 28 cycles of 45 s at 94° C., 45 s at 58° C., and 45 s at 72° C., followed by 7 min at 72° C., in a PCR apparatus (model 2400, Perkin Elmer). To verify equal amounts of RNA were used in the PCR reaction and to verify uniform amplification process, β-actin mRNA was also amplified from the sample as an internal control. […] A 100 bp DNA ladder was used as a size marker. The number of cycles versus intensity of the PCR band was evaluated to determine the optimum number of cycles to be in the linear range. […] Retinopathy scores were evaluated by the Kruskal-Wallis test for the overall group and by the Mann-Whitney test to determine differences between groups. Animals weights and GH expression were evaluated using Student's t-test. Statistical significance was determined at the P<0.05 level.

The target of data set [5] is T1, SSTR2. The settings on record: cited from earlier work.

T1 sequence (P30874 whole entry, species assumed): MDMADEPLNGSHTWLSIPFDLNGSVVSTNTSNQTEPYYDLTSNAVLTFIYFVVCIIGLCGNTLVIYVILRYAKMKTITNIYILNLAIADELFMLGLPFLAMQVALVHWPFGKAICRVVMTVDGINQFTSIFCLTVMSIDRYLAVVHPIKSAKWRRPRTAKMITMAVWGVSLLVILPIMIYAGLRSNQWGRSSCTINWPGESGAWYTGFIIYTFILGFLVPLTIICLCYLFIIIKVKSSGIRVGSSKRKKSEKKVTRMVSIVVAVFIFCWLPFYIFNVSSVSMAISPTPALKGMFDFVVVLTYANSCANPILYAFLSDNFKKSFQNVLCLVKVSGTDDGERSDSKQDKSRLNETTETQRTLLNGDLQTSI

Take `C[C@@H](O)[C@H](NC(=O)[C@@H]1CSSC[C@H](NC(=O)[C@@H](Cc2ccc(O)cc2)NC(=O)[C@@H](Cc2ccc(O)cc2)NC(=O)[C@@H](Cc2ccc(O)cc2)NC(=O)[C@H](N)Cc2ccc(O)cc2)C(=O)N[C@@H](Cc2ccccc2)C(=O)N[C@H](Cc2c[nH]c3ccccc23)C(=O)N[C@@H](CCCCN)C(=O)N[C@@H]([C@@H](C)O)C(=O)N1)C(N)=O` [Woc4D, Dtyr-Dtyr-Dtyr-Dtyr-cyclo(Cys-Phe-DTrp-Lys-Thr-Cys)-Thr-NH2] (H-[dY][dY][dY][dY]CF[dW]KTCT-NH2; disulfide 5-10; N-terminus assumed): in data set [1] (Oxygen + Woc4D 50), the “Blood vessel growth subscore, median” value stood at 0; the “Blood vessel tortuosity subscore, median” value came to 1; the “Hemorrhage subscore, median” value turned out to be 1. Also, in data set [1] (Room air + Woc4D 50), the “Blood vessel growth subscore, median (25th, 75th quartile)” value is 0 (0, 0); the “Blood vessel tortuosity subscore, median (25th, 75th quartile)” value is listed as 0 (0, 0); the “Blood vessel tufts subscore, median (25th, 75th quartile)” value is listed as 0 (0, 0); the “Central vasoconstriction subscore, median (25th, 75th quartile)” value is on record as 0 (0, 0). Further, in data set [1] (Room air + Woc4D 50), the “Extra retinal neovascularization subscore, median (25th, 75th quartile)” value is recorded as 0 (0, 0) and the “Hemorrhage subscore, median (25th, 75th quartile)” value is 0 (0, 0). Also, the retinal neovascularization entry in data set [1] is given as “inhibited retinal neovascularization in an equally effective manner”. Moreover, the “retinal vascular pathology in retinal whole mount (FIG. 3)” value in data set [1] (oxygen exposed, Woc4D treated animal) was “less retinal vascular pathology”. Further, the “median total retinopathy score” value in data set [1] (Woc4D 20 μg kg^−1 day^−1 P12-P16) is reported as 6(3,7). Also, the “affinity of interaction with SSTR2” value in data set [2] is given as “high affinity”. Moreover, the “growth as measured by animal weight” value in data set [3] is recorded as “unaffected”. Besides, the “oxygen stimulated GH mRNA” value in data set [4] (oxygen + Woc4D 50 μg kg^−1 day^−1 P12-P16) is recorded as “markedly reduced”.

Take `C[C@@H](O)[C@@H]1NC(=O)[C@H](CCCCN)NC(=O)[C@@H](Cc2c[nH]c3ccccc23)NC(=O)[C@H](Cc2ccccc2)NC(=O)[C@@H](NC(=O)[C@H](N)Cc2ccccc2)CSSC[C@@H](C(=O)N[C@H](CO)[C@@H](C)O)NC1=O` [octreotide, D-Phe-Cys-Phe-D-Trp-Lys-Thr-Cys Thr(ol)]: in data set [1] (Oxygen + oct 20 bid), the “Blood vessel growth subscore, median” value was 0; the “Blood vessel tufts subscore, median” value was “decreased blood vessel tufts; also recorded: improvement”; the “Central vasoconstriction subscore, median” value turned out to be 1; the “Extra retinal neovascularization subscore, median” value was “decreased extra-retinal neovascularization; also recorded: improvement”. Besides, in data set [1] (Room air + oct 20 bid), the “Blood vessel growth subscore, median (25th, 75th quartile)” value is given as 0 (0, 0); the “Blood vessel tortuosity subscore, median (25th, 75th quartile)” value is 0 (0, 0); the “Blood vessel tufts subscore, median (25th, 75th quartile)” value is on record as 0 (0, 0); the “Central vasoconstriction subscore, median (25th, 75th quartile)” value is on record as 0 (0, 0). In data set [1] (Room air + oct 20 bid), the “Extra retinal neovascularization subscore, median (25th, 75th quartile)” value is given as 0 (0, 0) and the “Hemorrhage subscore, median (25th, 75th quartile)” value was 0 (0, 0). Besides, in data set [1], the retinal neovascularization entry was “inhibited retinal neovascularization in an equally effective manner” and the “median total retinopathy score [median(25th, 75th quartile)]” value is reported as “significant improvement”. Moreover, the “median total retinopathy score” value in data set [1] (octreotide 10 μg kg^−1 bid P12-P16) is listed as 6(3,7). Moreover, the “median total retinopathy score [median(25th, 75th quartile)]” value in data set [1] (listed as octreoride) is listed as 3.5(2.9, 4.3). The “growth as measured by animal weight” value in data set [3] is given as “unaffected”. Further, the “receptor selectivity of stimulation” value in data set [5] is on record as “effective in stimulating SSTR2 to the virtual exclusion of the other receptors”. Moreover, in data set [4] (oxygen + octreotide 20 μg kg^−1 bid P12-P16), the “oxygen stimulated GH mRNA” value is on record as “markedly reduced”.
